Reference: patent US11560417B2, “Isolated polypeptides of CD44 and uses thereof” (Yissum Research Development Company of the Hebrew …, priority 2014, dated 2023)
Ends that are not written are not given here. Peptide text beside a SMILES is read from it.

How the values were obtained:
[1] = test system: C57BL/6 mice; assay: Delayed type hypersensitivity (DTH) response to oxazolone; assay type: in vivo, mouse; conditions: oxazolone sensitization day 0, elicitation day 6, reading day 7; peptide 200 μg daily
Description: DTH model—C57BL/6 mice were painted at their abdomen with oxazolone solution (sensitization). On day 6, the right ear of each mouse was painted with the same hapten, oxazolone (elicitation), to generate delayed type hypersensitivity (DTH) response. The differences in thickness between the right and the left ears, indicating DTH development, were determined by microcaliper 24 hours later. DTH induction indicates a normal immune response. For additional details see Weiss et al., (2000) Proc. Natl. Acad. Sci. USA. 97, 285-290.
Treatment protocol—PBS and 5-mer peptide (SEQ ID NO: 1) at a dose of 200 μg was administered one day before the sensitization and then every day during the sensitization period (7 days).

[2] = test system: CIA mice on C57BL/6 background; assay: ELISA for neutralizing anti-peptide antibodies in serum of treated CIA mice; assay type: in vivo, mouse; conditions: 70 μg per injection i.p., 10 consecutive days; ELISA plates coated with peptide
Description: Treatment protocol—PBS, or 5-mer RA peptide (SEQ ID NO: 1) at a dose of 70 μg per injection were administered i.p to CIA mice on C57BL/6 background for 10 consecutive days. In all groups first injection was given at the onset of disease as determined by paw swelling.
ELISA—96 wells ELISA plates were coated with 5-mer RA peptide (SEQ ID NO: 1), collagen or immunoglobulin (positive control). Serum from CIA mice treated with PBS or the 5-mer RA peptide was added to the coated plates and the presence of neutralizing antibodies against collagen or the RA peptide was detected with anti-immunoglobulin+detection system. The plate wells were coated with 1 mg/ml peptide or protein. Mouse serum was added to the plate wells for 15 hours in cold temperature. The detection system included HRP-anti-mouse IgG and TMB (Bako) substrate. Plates were analysed using an ELISA reader at a wave length of 450 nm.

[3] = test system: fibroblasts from the inflammatory joint of an RA patient; assay type: cell-based, human
Description: Cells—Fibroblasts from the inflammatory joint of an RA patient were cultured and maintained as shown in Bendersky et al, J Immunol.; 188:4349-59, 2012. A quantity of 20,000 cells was added to each one of the 96 well plates with the indicated concentrations of peptide, serum amyloid A or α-lactalbumin.
MTT assay—MTT assay was effected as shown in Madhyastha et al. (2015) J Clin Diagn Res.; 9 :ZCO5-8.
An in-vitro model was developed as a tool to evaluate the biological activity of the generated RA peptides. To this end, fibroblasts from the inflammatory joint of an RA patient were incubated in-vitro and the effect of the peptides on cell survival was evaluated by a MTT assay.

[4] = test system: CIA mice on DBA/1 background; assay: Paw swelling in collagen-induced arthritis (CIA) mice on DBA/1 background; assay type: in vivo, mouse; conditions: for joint inflammation (paw swelling) vs PBS / hind paws that remained healthy (paw swelling less than 2 mm): 200 μg per injection i.p.; for joint inflammation (paw swelling) vs PBS: daily for 9-10 days from onset of disease; for hind paws that remained healthy (paw swelling less than 2 mm): daily for 9 days, CIA DBA/1 mice; for paw swelling response vs PBS: 4 times within 6 days from onset of disease
Description: (§1) Mice—Collagen-induced arthritis (CIA) was generated in DBA/1 or C57BL mice by injection of type II collagen as described in Nedvetzki et al., PNAS 101, 18081-18086, 2004.
Treatment protocol—PBS, or the 9-mer RA peptide (SEQ ID NO: 3) at a dose of 25 μg, 100 μg or 150 μg per injection was administered i.p to CIA mice for 4 times within 6 days (see Table 3 below). PBS (n=7), or 5-mer RA peptide (SEQ ID NO: 1, n=7) at a dose of 70 μg per injection were administered i.p to CIA mice on C57BL/6 background for 10 consecutive days. In all groups first injection was given at the onset of disease as determined by paw swelling.
(§2) Evaluation of joint inflammation—Inflammation was evaluated by the paw swelling response. Paw swelling was measured by micro caliber. Paw swelling at range of 2.1-2.3 mm was considered “onset of disease” and the starting point for injection of the peptides. […] All measurements were performed under blind manner (For additional details see Nedvetzki, et al., (2004) PNAS 101, 18081-18086).
(§3) Treatment protocol—PBS, or the tested peptides [Ac-TRMTADVDR-NH2 (SEQ ID NO: 6), Ac-MTADVDR-NH2 (SEQ ID NO: 5), Ac-MTADV-NH2 (SEQ ID NO: 4) and scrambled Ac-TMDVADR-NH2 (SEQ ID NO: 7)] at doses of 70 or 200 μg per injection were administered i.p to […] for 9-10 consecutive days (see Tables 4-7 below). As a non-specific control, several mice were administered I.P. with Dexamethsone (Dex) at a dose of 50 μg, following the same protocol. In all groups first injection was given at the onset of disease as determined by paw swelling.
Evaluation of joint inflammation—As described in Example 2 above. Paw swelling of less than 2 mm was considered healthy.

[5] = test system: CIA mice on C57BL/6 background; assay: Paw/footpad swelling in CIA mice on C57BL/6 background; assay type: in vivo, mouse; conditions: 10 consecutive days; for joint inflammation (paw swelling) vs PBS: 70 μg per injection i.p.
Description: as §1, §2, §3
Treatment protocol—PBS, or the tested peptide [Ac-MTADV-NH2 (SEQ ID NO: 4)] at doses of 10, 25, 70, 200 or 600 μg per injection were administered i.p to CIA mice for 10 consecutive days (see Tables 8-9 below). In all groups first injection was given at the onset of disease as determined by paw swelling.
To evaluate the optimal anti-inflammatory therapeutic dose of the 5-mer RA peptide, several different doses of the protected peptide (SEQ ID NO: 4) were administered to CIA mice on C57BL/6 background and joint inflammation was determined by footpad swelling measurements (electronic automatic measurements of the volume of the footpad, based on Archimedes observation).

CSCC[C@H](N)C(=O)N[C@H](C(=O)N[C@@H](C)C(=O)N[C@@H](CC(=O)O)C(=O)N[C@H](C(=O)O)C(C)C)[C@@H](C)O [5-mer RA peptide, MTADV] (H-MTADV-OH)
DTH response (difference in thickness between right and left ears) vs PBS [1]: did not affect the DTH response | neutralizing antibodies to the peptide in serum [2]: no neutralizing antibodies | in-vitro maximal suppressive effect on cell survival [3]: 60%

Ac-MTADVDR-NH2 [7-mer protected RA peptide]
joint inflammation (paw swelling) vs PBS [4]: reduces joint inflammation | hind paws that remained healthy (paw swelling less than 2 mm) [4]: more than 60%

Ac-MTADV-NH2 [5-mer protected RA peptide]
joint inflammation (paw swelling) vs PBS [4]: reduces joint inflammation | joint inflammation (footpad swelling) vs PBS ([5]; 10 μg per injection i.p.): did not induce a significant anti-inflammatory effect | joint inflammation (footpad swelling) vs PBS ([5]; 25 μg per injection i.p.): did not induce a significant anti-inflammatory effect | joint inflammation (paw swelling) vs PBS [5]: reduced the joint inflammation | joint inflammation (paw swelling) vs PBS ([5]; listed as 5-mer protected peptide): significantly inhibit joint inflammation | joint inflammation (footpad swelling) vs PBS ([5]; 200 μg per injection i.p.): reduced the joint inflammation | joint inflammation (footpad swelling) vs PBS ([5]; 600 μg per injection i.p.): reduced the joint inflammation | optimal and lowest dose for CIA inhibition ([5]; doses 10-600 μg i.p.): 70 μg per injection | suppressive effect on cell survival compared to the 5-mer RA peptide (SEQ ID NO: 1) ([3]; MTT assay): improved the suppressive effect

Ac-TMDVADR-NH2 [reference compound]
joint inflammation (paw swelling) vs PBS [4]: no effect on footpad swelling | hind paws that remained healthy (paw swelling less than 2 mm) [4]: 33%

TRMTADVDR (not fully specified (C-terminus)) [9-mer RA peptide]
paw swelling response vs PBS ([4]; 25 μg per injection i.p.): did not show significant difference in paw swelling response | paw swelling response vs PBS ([4]; 100 μg per injection i.p.): did not show significant difference in paw swelling response | paw swelling response vs PBS ([4]; 150 μg per injection i.p.): significant reduction in paw swelling

Ac-TRMTADVDR-NH2 [9-mer protected RA peptide]
joint inflammation (paw swelling) vs PBS [4]: reduce joint inflammation

B1: Serum Amyloid A (SAA): Serum Amyloid A protein added to the fibroblast culture in combination with the 5-mer peptide (protein)
chain: RSFFSFLGEAFDGARDMWRAYSDMREANYIGSDKYFHARGNYDAAKRGPGGAWAAEVITDARENIQRFFGHGAEDSLADQAANEWGRSGKDPNHFRPAGLPEKY
effect on the 5-mer peptide's inhibition of cell survival ([3]; 50 μg/ml added in combination with the 5-mer peptide): prevents this inhibition | effect on the 5-mer peptide's reduction of fibroblast survival ([3]; escalating concentrations, 5-mer peptide constant at 25 μg/ml): gradually prevented this reduction
